Laboratory results: PubChem BioAssay AID2060890 (Molecular Pharmacology Branch, DTP, NCI, 2025)

Test system: LG0703-F948-PDC complex spheroid viability
Assay: Anticancer human tumor LG0703-F948-PDC patient-derived lung adenocarcinoma cell line growth inhibition [RAS]
Conditions: for IC50: curve of first compound; for viability, T/C: stronger effect = lower value
Summary of the method: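 Agents were tested in combination matrices in half-log decrements from a top concentration at or near clinical Cmax (10 microM if undetermined). Targets were multi-cell spheroids of tumour lines plus HUVEC and MSC stromal cells.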

[1] = second compound 0.000949 µM, first compound 0.000949 µM
[2] = second compound 0.000949 µM, first compound 0.003 µM
[3] = second compound 0.000949 µM, first compound 0.00949 µM
[4] = second compound 0.000949 µM, first compound 0.03 µM
[5] = second compound 0.000949 µM, first compound 0.0949 µM
[6] = second compound 0.000949 µM, first compound 0.3 µM
[7] = second compound 0.003 µM, first compound 0.000949 µM
[8] = second compound 0.003 µM, first compound 0.003 µM
[9] = second compound 0.003 µM, first compound 0.00949 µM
[10] = second compound 0.003 µM, first compound 0.03 µM
[11] = second compound 0.003 µM, first compound 0.0949 µM
[12] = second compound 0.003 µM, first compound 0.3 µM
[13] = second compound 0.00949 µM, first compound 0.000949 µM
[14] = second compound 0.00949 µM, first compound 0.003 µM
[15] = second compound 0.00949 µM, first compound 0.00949 µM
[16] = second compound 0.00949 µM, first compound 0.03 µM
[17] = second compound 0.00949 µM, first compound 0.0949 µM
[18] = second compound 0.00949 µM, first compound 0.3 µM
[19] = second compound 0.03 µM, first compound 0.000949 µM
[20] = second compound 0.03 µM, first compound 0.003 µM
[21] = second compound 0.03 µM, first compound 0.00949 µM
[22] = second compound 0.03 µM, first compound 0.03 µM
[23] = second compound 0.03 µM, first compound 0.0949 µM
[24] = second compound 0.03 µM, first compound 0.3 µM
[25] = second compound 0.0949 µM, first compound 0.000949 µM
[26] = second compound 0.0949 µM, first compound 0.003 µM
[27] = second compound 0.0949 µM, first compound 0.00949 µM
[28] = second compound 0.0949 µM, first compound 0.03 µM
[29] = second compound 0.0949 µM, first compound 0.0949 µM
[30] = second compound 0.0949 µM, first compound 0.3 µM
[31] = second compound 0.3 µM, first compound 0.000949 µM
[32] = second compound 0.3 µM, first compound 0.003 µM
[33] = second compound 0.3 µM, first compound 0.00949 µM
[34] = second compound 0.3 µM, first compound 0.03 µM
[35] = second compound 0.3 µM, first compound 0.0949 µM
[36] = second compound 0.3 µM, first compound 0.3 µM
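Further: spheroids exposed to agents for 7 days.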
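Wherever viability, T/C is given: 100% = DMSO vehicle wells.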

CC1(C)CCC(Nc2ncc(C(F)(F)F)c(-c3c[nH]c4c(P(C)(C)=O)c(C#N)ccc34)n2)CN1 (stereo unspecified) + CCn1c(-c2cccnc2C(C)OC)c2c3cc(ccc31)N1CCOC(CC(NC(=O)C(C(C)C)N(C)C(=O)C3(F)CCN(C(=O)C#CC(C)(C)N(C)C)CC3)C(=O)N3CCCC(N3)C(=O)OCC(C)(C)C2)C1 was tested, and the IC50 (second compound 0.000949 µM) was greater than 300 nM, the IC50 (second compound 0.003 µM) was greater than 300 nM and the IC50 (second compound 0.00949 µM) was greater than 300 nM. It also gave an IC50 (second compound 0.03 µM) greater than 300 nM, an IC50 (second compound 0.0949 µM) greater than 300 nM and an IC50 (second compound 0.3 µM) of less than 0.949 nM. It also gave a viability, T/C [1] of 83.4%, a viability, T/C [2] of 70.4% and a viability, T/C [3] of 67.1%. The viability, T/C [4] was 60.1%, the viability, T/C [5] was 67.3% and the viability, T/C [6] was 56.5%. The viability, T/C [7] was 89.2%, the viability, T/C [8] was 84.9% and the viability, T/C [9] was 58.1%. The viability, T/C [10] was 62.2%, the viability, T/C [11] was 61.5% and the viability, T/C [12] was 68.7%. For the same compound, the viability, T/C [13] was 75%, the viability, T/C [14] was 72.7% and the viability, T/C [15] was 77.8%. It also gave a viability, T/C [16] of 57.7%, a viability, T/C [17] of 64.8% and a viability, T/C [18] of 67.2%. It also gave a viability, T/C [19] of 86.5%, a viability, T/C [20] of 79.5% and a viability, T/C [21] of 62.6%. It also gave a viability, T/C [22] of 66.1%, a viability, T/C [23] of 59.4% and a viability, T/C [24] of 60.4%. It also gave a viability, T/C [25] of 82.9%, a viability, T/C [26] of 68.2% and a viability, T/C [27] of 65%. The viability, T/C [28] was 55%, the viability, T/C [29] was 65.7% and the viability, T/C [30] was 63.7%. For the same compound, the viability, T/C [31] was 39.1%, the viability, T/C [32] was 49.9% and the viability, T/C [33] was 48.5%. The viability, T/C [34] was 46.1%, the viability, T/C [35] was 48.8% and the viability, T/C [36] was 46.2%.

In the case of CCc1c2c(nc3ccc(O)cc13)-c1cc3c(c(=O)n1C2)COC(=O)[C@]3(O)CC + CCn1c(-c2cccnc2C(C)OC)c2c3cc(ccc31)N1CCOC(CC(NC(=O)C(C(C)C)N(C)C(=O)C3(F)CCN(C(=O)C#CC(C)(C)N(C)C)CC3)C(=O)N3CCCC(N3)C(=O)OCC(C)(C)C2)C1, the IC50 (second compound 0.000949 µM) is reported as 83.9 nM, the IC50 (second compound 0.003 µM) is reported as 77 nM and the IC50 (second compound 0.00949 µM) is reported as 63.7 nM. It also gave an IC50 (second compound 0.03 µM) of 51.8 nM, an IC50 (second compound 0.0949 µM) of 19.9 nM and an IC50 (second compound 0.3 µM) of less than 0.949 nM. The viability, T/C [1] was 123%, the viability, T/C [2] was 86.9% and the viability, T/C [3] was 103%. The viability, T/C [4] was 66%, the viability, T/C [5] was 43.3% and the viability, T/C [6] was 30.6%. The viability, T/C [7] was 130%, the viability, T/C [8] was 102% and the viability, T/C [9] was 103%. The viability, T/C [10] was 60.5%, the viability, T/C [11] was 48.1% and the viability, T/C [12] was 30.3%. For the same compound, the viability, T/C [13] was 111%, the viability, T/C [14] was 103% and the viability, T/C [15] was 104%. The viability, T/C [16] was 62.4%, the viability, T/C [17] was 46.8% and the viability, T/C [18] was 26%. It also gave a viability, T/C [19] of 113%, a viability, T/C [20] of 93.9% and a viability, T/C [21] of 87.5%. For the same compound, the viability, T/C [22] was 56%, the viability, T/C [23] was 40.4% and the viability, T/C [24] was 27.4%. It also gave a viability, T/C [25] of 85.7%, a viability, T/C [26] of 91.2% and a viability, T/C [27] of 63.3%. It also gave a viability, T/C [28] of 42.7%, a viability, T/C [29] of 27.1% and a viability, T/C [30] of 22.9%. It also gave a viability, T/C [31] of 44%, a viability, T/C [32] of 49.9% and a viability, T/C [33] of 46.3%. It also gave a viability, T/C [34] of 25.8%, a viability, T/C [35] of 19.2% and a viability, T/C [36] of 14.1%.

Work on C=CC(=O)Nc1cc(Nc2nccc(-c3cn(C)c4ccccc34)n2)c(OC)cc1N(C)CCN(C)C + CCn1c(-c2cccnc2C(C)OC)c2c3cc(ccc31)N1CCOC(CC(NC(=O)C(C(C)C)N(C)C(=O)C3(F)CCN(C(=O)C#CC(C)(C)N(C)C)CC3)C(=O)N3CCCC(N3)C(=O)OCC(C)(C)C2)C1 yielded an IC50 (second compound 0.000949 µM) of 13.1 nM, an IC50 (second compound 0.003 µM) of 13.9 nM and an IC50 (second compound 0.00949 µM) of 12.1 nM. It also gave an IC50 (second compound 0.03 µM) of 9.92 nM, an IC50 (second compound 0.0949 µM) of 4.89 nM and an IC50 (second compound 0.3 µM) of less than 3.16 nM. It also gave a viability, T/C (second compound 0.000949 µM, first compound 0.00316 µM) of 78.5%, a viability, T/C (second compound 0.000949 µM, first compound 0.01 µM) of 56.9% and a viability, T/C (second compound 0.000949 µM, first compound 0.0316 µM) of 27.3%. It also gave a viability, T/C (second compound 0.000949 µM, first compound 0.1 µM) of 20.5%, a viability, T/C (second compound 0.000949 µM, first compound 0.316 µM) of 19.1% and a viability, T/C (second compound 0.000949 µM, first compound 1 µM) of 13.9%. The viability, T/C (second compound 0.003 µM, first compound 0.00316 µM) was 88.6%, the viability, T/C (second compound 0.003 µM, first compound 0.01 µM) was 57.5% and the viability, T/C (second compound 0.003 µM, first compound 0.0316 µM) was 31.1%. It also gave a viability, T/C (second compound 0.003 µM, first compound 0.1 µM) of 21.5%, a viability, T/C (second compound 0.003 µM, first compound 0.316 µM) of 16.2% and a viability, T/C (second compound 0.003 µM, first compound 1 µM) of 15.6%. It also gave a viability, T/C (second compound 0.00949 µM, first compound 0.00316 µM) of 83.4%, a viability, T/C (second compound 0.00949 µM, first compound 0.01 µM) of 55.6% and a viability, T/C (second compound 0.00949 µM, first compound 0.0316 µM) of 22.3%. For the same compound, the viability, T/C (second compound 0.00949 µM, first compound 0.1 µM) was 18.5%, the viability, T/C (second compound 0.00949 µM, first compound 0.316 µM) was 19.7% and the viability, T/C (second compound 0.00949 µM, first compound 1 µM) was 15.2%. For the same compound, the viability, T/C (second compound 0.03 µM, first compound 0.00316 µM) was 82.6%, the viability, T/C (second compound 0.03 µM, first compound 0.01 µM) was 49.6% and the viability, T/C (second compound 0.03 µM, first compound 0.0316 µM) was 26.6%. The viability, T/C (second compound 0.03 µM, first compound 0.1 µM) was 15.5%, the viability, T/C (second compound 0.03 µM, first compound 0.316 µM) was 17.4% and the viability, T/C (second compound 0.03 µM, first compound 1 µM) was 14.4%. It also gave a viability, T/C (second compound 0.0949 µM, first compound 0.00316 µM) of 60.2%, a viability, T/C (second compound 0.0949 µM, first compound 0.01 µM) of 33.1% and a viability, T/C (second compound 0.0949 µM, first compound 0.0316 µM) of 21.2%. It also gave a viability, T/C (second compound 0.0949 µM, first compound 0.1 µM) of 14.9%, a viability, T/C (second compound 0.0949 µM, first compound 0.316 µM) of 13.9% and a viability, T/C (second compound 0.0949 µM, first compound 1 µM) of 12.1%. The viability, T/C (second compound 0.3 µM, first compound 0.00316 µM) was 29.1%, the viability, T/C (second compound 0.3 µM, first compound 0.01 µM) was 17.5% and the viability, T/C (second compound 0.3 µM, first compound 0.0316 µM) was 9.89%. It also gave a viability, T/C (second compound 0.3 µM, first compound 0.1 µM) of 9.16%, a viability, T/C (second compound 0.3 µM, first compound 0.316 µM) of 9.3% and a viability, T/C (second compound 0.3 µM, first compound 1 µM) of 13.5%.
